{"source": "paper PMC3169401", "about": "“Structure of fructose bisphosphate aldolase from Bartonella henselae bound to fructose 1,6-bisphosphate” (Acta Crystallographica Section F: Structural Biology and …, 2011)", "key": {"[1]": {"biological_target": "T1, BhFBPA (Bartonella henselae fructose bisphosphate aldolase) (Bartonella henselae, UniProt Q8L207)", "T1 construct": "gene fbab; full length, 343 residues; E. coli BL21(DE3) R3 Rosetta; 39495 Da; homotetramer; residues 1-340 modelled", "T1 sequence (Q8L207 1-343)": "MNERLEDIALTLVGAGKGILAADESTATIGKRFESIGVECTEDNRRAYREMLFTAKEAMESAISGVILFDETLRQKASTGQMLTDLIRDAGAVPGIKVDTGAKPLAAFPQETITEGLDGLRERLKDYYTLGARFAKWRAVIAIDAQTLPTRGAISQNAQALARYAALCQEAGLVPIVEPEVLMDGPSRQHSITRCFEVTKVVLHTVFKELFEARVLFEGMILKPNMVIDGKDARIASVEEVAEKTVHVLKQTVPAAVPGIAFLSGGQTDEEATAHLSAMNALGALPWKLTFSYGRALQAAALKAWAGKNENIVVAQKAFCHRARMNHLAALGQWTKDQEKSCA", "assay": "X-ray crystal structure of the complex ([…] A, cocrystallization)", "type": "binding", "conditions": "covalent; Schiff base of C2 of linear FBP with Lys223 at the active site; 10 mM FBP, pH 8.5, 290 K"}, "[2]": {"biological_target": "Bartonella henselae fructose bisphosphate aldolase (Bartonella henselae)", "assay": "crystal structure; cocrystallised with 10 mM fructose 1,6-bisphosphate, vapor diffusion at 290 K, 0.2 M sodium acetate, 0.1 M Tris pH 8.5, 30% PEG 4000; four monomers in the asymmetric unit; 2.35 A"}}, "data": [{"compound": "O=P(O)(O)OC[C@H]1OC(O)(COP(=O)(O)O)[C@@H](O)[C@@H]1O", "note": "(some centres unmarked) [fructose 1,6-bisphosphate]", "values": [{"measurement": "X-ray crystal structure of the complex (2.35 A, cocrystallization)", "setting": "[1]", "value": "This structure has clear electron density for FBP bound at the active site"}]}, {"compound": "Bartonella henselae fructose bisphosphate aldolase (enzyme)", "values": [{"measurement": "stoichiometry N", "setting": "[2]", "value": 4}]}]}
